Reference: ChEMBL document CHEMBL1144672, “The use of ligand-based de novo design for scaffold hopping and sidechain optimization: two case studies” (Bioorg Med Chem, 2008)

What was measured:
[1] = target: T1, Gonadotropin-releasing hormone receptor (Homo sapiens) (UniProt P30968); assay: Inhibition of GnRH receptor at 10 uM
T1 sequence (whole entry): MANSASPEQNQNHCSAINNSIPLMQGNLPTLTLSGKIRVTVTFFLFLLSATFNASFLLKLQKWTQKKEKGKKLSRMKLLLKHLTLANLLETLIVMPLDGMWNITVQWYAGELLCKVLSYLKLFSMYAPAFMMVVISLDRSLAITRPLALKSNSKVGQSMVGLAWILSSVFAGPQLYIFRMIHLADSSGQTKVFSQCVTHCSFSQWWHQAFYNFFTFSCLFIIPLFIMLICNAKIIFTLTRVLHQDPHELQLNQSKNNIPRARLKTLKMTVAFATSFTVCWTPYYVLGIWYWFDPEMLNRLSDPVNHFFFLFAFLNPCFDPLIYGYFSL

[2] = target: T2, Gonadotropin-releasing hormone receptor (Homo sapiens, UniProt P30968); assay: Inhibition of GnRH receptor
T2 sequence (P30968 whole entry): T1 sequence (whole entry)

SMILES | inhibition [1] | Ki [2]
CC(CCN1CCc2c(c(=O)n(CCN3CCCCC3)c(=O)n2Cc2c(F)cccc2F)C1)CC(C)(C)C (stereo not drawn) | 50% | 4400 nM
CNC(Cn1c(=O)c2c(n(Cc3c(F)cccc3F)c1=O)CCN(Cc1ccc(C)cc1C)C2)c1ccccc1 (stereo not drawn) | 100% | 50 nM
CC(C)CN(C)CCn1c(=O)c2c(n(CCOc3ccccc3)c1=O)CCN(CCCC(F)(F)F)C2 | 0% | 
COc1ccc(CN2CC3CC(c4ccc(N(C)C)c5ccccc45)N4C(=O)N(CCN5CCOCC5)C(=O)C34C2)cc1NC(C)=O (stereo not drawn) |  | 21 nM
CC(C)CN(C)CCn1c(=O)c2c(n(Cc3c(F)cccc3F)c1=O)CCN(Cc1ccc(OC(F)(F)F)cc1)C2 | 73% | 2500 nM
Cc1cc(C)cc(-c2[nH]c3ccc(C(C)(C)C(=O)N4C5CCC4CC5)cc3c2C(C)CNCCCCc2ccnnc2)c1 (stereo not drawn) |  | 0.7 nM
Cc1ccc(CN2CCc3c(c(=O)n(CC4NCCc5ccccc54)c(=O)n3Cc3c(F)cccc3F)C2)c(C)c1 (stereo not drawn) | 95% | 110 nM
COc1cccc(-c2c(C)n(Cc3c(F)cccc3F)c(=O)n(CC(C)NCc3nccs3)c2=O)c1F (stereo not drawn) |  | 6 nM

Results, then the molecule that gave them:

inhibition [1] | Ki [2] | SMILES
16% |  | O=c1c2c(n(Cc3c(F)cccc3F)c(=O)n1CCN1CCc3ccccc3C1)CCN(CC1CCCC1)C2
72% | 1900 nM | Cc1ccc(CN2CCc3c(c(=O)n(CC4CCNCC4)c(=O)n3Cc3c(F)cccc3F)C2)c(C)c1
 | 50 nM | CCOC(=O)c1cn(Cc2c(F)cccc2F)c2cc(-c3ccc(NC(=O)CC)cc3)c(CN(C)Cc3ccccc3)cc2c1=O
66% | 3200 nM | NC(CC1CCCCC1)Cn1c(=O)c2c(n(Cc3c(F)cccc3F)c1=O)CCN(Cc1ccc(Cl)cc1)C2 (stereo not drawn)
